Results reported in patent US20210017174A1, “IDENTIFICATION AND USE OF ERK5 INHIBITOR” (Bayer Aktiengesellschaft, priority 2018, published 2021).

Key:
ERK5 = molecular target: T1, ERK5 (Homo sapiens, UniProt Q13164); assay: TR-FRET-based Erk5 activity inhibition assay (biochemical assay ERK5); conditions: TR-FRET, 250 μM ATP, 1 μM substrate peptide, 60 min at 22° C.; read-out: IC50 value biochemiocal ERK5 asssay
T1 construct: host or cells: E. coli

[1] = tested on: SN12C-MEF2-luc (clone #37) reporter cell line; assay: Luciferase reporter assay in SN12C-MEF2-luc cells (EGF-stimulated, MEF2-responsive luciferase); format: cell-based; conditions: Homo sapiens, 16 h compound incubation, then EGF 100 ng/ml for 2 h, ONE-Glo luminescence;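 further: serially diluted compounds at 37 °C, EGF with DMSO as maximum signal and EGF with a 10 µM reference inhibitor as minimum (full inhibition)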

T1 sequence (Q13164 1-398): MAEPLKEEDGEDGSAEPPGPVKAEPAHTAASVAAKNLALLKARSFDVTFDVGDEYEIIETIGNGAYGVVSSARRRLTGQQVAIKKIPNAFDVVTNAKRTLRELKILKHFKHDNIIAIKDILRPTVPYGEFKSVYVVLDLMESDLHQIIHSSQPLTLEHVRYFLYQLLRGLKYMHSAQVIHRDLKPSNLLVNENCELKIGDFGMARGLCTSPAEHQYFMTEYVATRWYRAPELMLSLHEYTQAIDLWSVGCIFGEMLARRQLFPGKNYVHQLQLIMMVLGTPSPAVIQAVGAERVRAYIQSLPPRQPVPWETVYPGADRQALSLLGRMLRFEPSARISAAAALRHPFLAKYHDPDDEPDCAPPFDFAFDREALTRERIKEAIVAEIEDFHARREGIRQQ

| IC50 (ERK5) [nM] | IC50 [1] [nM] | SMILES |
| --- | --- | --- |
| 24.7 | 500 | O=C(c1ccc(OC(F)(F)F)cc1)N1CCC(c2ncnc3cc(C4=CCOCC4)ccc23)CC1 [Example 52, {4-[7-(3,6-Dihydro-2H-pyran-4-yl)quinazolin-4-yl]piperidin-1-yl}[4-(trifluoro-methoxy)phenyl]-methanone] |
| 43 | 594 | O=C(c1ccc(OC(F)(F)F)cc1)N1CCC(c2ncnc3cc(C4CC4)ccc23)CC1 [Example 51, [4-(7-Cyclopropylquinazolin-4-yl)piperidin-1-yl][4-(trifluoromethoxy)phenyl]-methanone] |
| 69.3 | 415 | O=C(c1ccc(OC(F)(F)F)cc1)N1CCC(c2ncnc3cc(N4CCC(F)(F)C4)cnc23)CC1 [Example 72, {4-[7-(3,3-Difluoropyrrolidin-1-yl)pyrido[3,2-d]pyrimidin-4-yl]piperidin-1-yl}[4-(trifluoromethoxy)phenyl]methanone] |
| 159 | 1720 | COc1cc2ncnc(C3CCN(C(=O)c4ccc(SC(F)(F)F)cc4)CC3)c2cc1OC [Example 16, [4-(6,7-Dimethoxyquinazolin-4-yl)piperidin-1-yl]{4-[(trifluoromethyl)sulfanyl]-phenyl}methanone] |
| 401 | 4910 | C=CCOc1ccc(C(=O)N2CCC(c3ncnc4cc(OC)c(OC)cc34)CC2)cc1 [Example 27, [4-(6,7-Dimethoxyquinazolin-4-yl)piperidin-1-yl][4-(prop-2-en-1-yloxy)phenyl]-methanone] |
| 110 | 2450 | O=C(c1ccc(OC(F)(F)F)cc1)N1CCC(c2ncnc3cc(OCCO)ccc23)CC1 [Example 47, {4-[7-(2-Hydroxyethoxy)quinazolin-4-yl]piperidin-1-yl}[4-(trifluoromethoxy)-phenyl]methanone] |
| 145 | 352 | O=C(c1ccc(OC(F)(F)F)cc1)N1CCC(c2ncnc3cc(OC4CCOCC4)ccc23)CC1 [Example 49, {4-[7-(Tetrahydro-2H-pyran-4-yloxy)quinazolin-4-yl]piperidin-1-yl}[4-(trifluoromethoxy)phenyl]-methanone] |
| 39.1 | 253 | CC1(N)CCN(c2cnc3c(C4CCN(C(=O)c5ccc(OC(F)(F)F)cc5)CC4)ncnc3c2)CC1 [Example 73, {4-[7-(4-Amino-4-methylpiperidin-1-yl)pyrido[3,2-d]pyrimidin-4-yl]piperidin-1-yl}[4-(trifluoromethoxy)phenyl]methanone] |
| 30.3 | 132 | O=C(c1ccc(OC(F)(F)F)cc1)N1CCC(c2ncnc3cc(N4CCC(F)(F)CC4)cnc23)CC1 [Example 77, {4-[7-(4,4-Difluoropiperidin-1-yl)pyrido[3,2-d]pyrimidin-4-yl]piperidin-1-yl}[4-(trifluoromethoxy)phenyl]methanone] |
| 88.5 | 1230 | COc1cc2ncnc(C3CCN(C(=O)c4ccc(OC(F)(F)F)c(F)c4)CC3)c2cc1OC [Example 22, [4-(6,7-Dimethoxyquinazolin-4-yl)piperidin-1-yl][3-fluoro-4-(trifluoromethoxy)phenyl]methanone] |
| 1090 | 7040 | CNC(=O)c1ccc2c(C3CCN(C(=O)c4ccc(OC(F)(F)F)cc4)CC3)ncnc2c1 [Example 41, N-Methyl-4-{1-[4-(trifluoromethoxy)benzoyl]piperidin-4-yl}quinazoline-7-carboxamide] |
| 153 | 436 | CN1CCC(Nc2cnc3c(C4CCN(C(=O)c5ccc(OC(F)(F)F)cc5)CC4)ncnc3c2)CC1 [Example 71, (4-{7-[(1-Methylpiperidin-4-yl)amino]pyrido[3,2-d]pyrimidin-4-yl}piperidin-1-yl)[4-(trifluoromethoxy)phenyl]methanone] |
| 1140 | 11300 | COc1cc2ncnc(C3CCN(C(=O)c4ccc(COC(F)(F)F)cc4)CC3)c2cc1OC [Example 5, [4-(6,7-Dimethoxyquinazolin-4-yl)piperidin-1-yl]{4-[(trifluoromethoxy)methyl]phenyl}methanone] |
| 190 | 942 | O=C(c1ccc(OC(F)(F)F)cc1)N1CCC(c2ncnc3cc(N4CCCC4=O)ccc23)CC1 [Example 54, 1-(4-{1-[4-(Trifluoromethoxy)benzoyl]piperidin-4-yl}quinazolin-7-yl)pyrrolidin-2-one] |
| 89.8 | 694 | O=C(c1ccc(OC(F)(F)F)cc1)N1CCC(c2ncnc3cc(OCC(F)F)ccc23)CC1 [Example 64, {4-[7-(2,2-Difluoroethoxy)quinazolin-4-yl]piperidin-1-yl}[4-(trifluoromethoxy)-phenyl]methanone] |

| SMILES | IC50 (ERK5) [nM] | IC50 [1] [nM] |
| --- | --- | --- |
| CCCCOc1ccc(C(=O)N2CCC(c3ncnc4cc(OC)c(OC)cc34)CC2)cc1 [Example 17, (4-Butoxyphenyl)[4-(6,7-dimethoxyquinazolin-4-yl)piperidin-1-yl]methanone] | 111 | 13100 |
| COc1cc2ncnc(C3CCN(C(=O)c4ccc(OC(C)(C)C)cc4)CC3)c2cc1OC [Example 25, (4-Tert-butoxyphenyl)[4-(6,7-dimethoxyquinazolin-4-yl)piperidin-1-yl]methanone] | 1030 | 6830 |
